Measurements taken from patent publication US6583145B1, “Thio-oxindole derivatives” (Wyeth, priority 1999, dated 2003).

What was measured:
[1] = test system: rat uterine decidualization; test: Rat decidualization assay; conditions: s.c.; average of the dose-response curves

| SMILES | melting point | Estimated average EC50 (decidual response) [1] [mg/kg] |
| --- | --- | --- |
| CC1(C)C(=S)Nc2ccc(-c3coc(C#N)c3)cc21 [Example 18, 4-(3,3-Dimethyl-2-thioxo-2,3-dihydro-1H-indol-5-yl)-2-furonitrile] | 188 to 191 °C |  |
| ON=C1Nc2ccc(-c3ccc(F)cc3)cc2C12CCCCC2 [Example 47, 5′-(4-Fluorophenyl)spiro[cyclohexane-1,3′-[3H]indol]-2′(1′H)-one Oxime] | 205 to 208 °C |  |
| N#Cc1cccc(-c2ccc3c(c2)C2(CCCCC2)C(=NO)N3)c1 [Example 51, 5′-(3-Cyanophenyl)spiro[cyclohexane-1,3′-[3H]indol]-2′(1′H)-one Oxime] | 198 to 200 °C |  |
| N#Cc1cccc(-c2ccc3c(c2)C2(CCCCC2)C(=S)N3)c1 [Example 2, 3-(1′,2′-Dihydro-2′-thioxospiro[cyclohexane-1,3′-[3H]indol]-5′-yl)benzonitrile] | > 231 °C (dec.) |  |
| C#C[C@]1(O)CC[C@H]2[C@@H]3CCC4=CC(=O)CC[C@@H]4[C@H]3C(=C)C[C@@]21CC [3-Ketodesogestrel] |  | 0.10 |
| COc1cccc(-c2ccc3c(c2)C2(CCCCC2)C(=NO)N3)c1 [Example 49, 5′-(3-Methoxyphenyl)spiro[cyclohexane-1,3′-[3H]indol]-2′(1′H)-one Oxime] | 101 to 104 °C |  |
